# Assay results taken from ChEMBL document CHEMBL3885861, “Open TG-GATES”.
# Organism: Rattus norvegicus
# Assay: Open TG-GATES - Regimen: Daily Repeat
# Format: toxicity, organism-based, Sprague-Dawley
# Parameters: regimen Daily Repeat, gender Male, age 6 weeks
# Conditions: in vivo, po, route gavage; for APTT / Bas / Eos / Fbg / Hb / Ht / Lym / MCH / MCHC / MCV / Mono / Neu / PT / Plat / RBC / Ret / WBC: tissue Blood; for ALP / ALT / AST / BUN / CRE / DBIL / GLC / IP / K / Na / PL / RALB / TBIL / TC / TG / TP / gamma-GTP: tissue Plasma
# [1] = 100 mg/kg, 72 h, dose level Middle, time 3 day
# [2] = 100 mg/kg, […], dose level Middle, time 7 day
# [3] = 100 mg/kg, […], dose level Middle, time 14 day
# [4] = 100 mg/kg, […], dose level Middle, time 28 day
# [5] = 300 mg/kg, 72 h, dose level High, time 3 day
# [6] = 300 mg/kg, […], dose level High, time 7 day
# [7] = 300 mg/kg, […], dose level High, time 14 day
# [8] = 300 mg/kg, […], dose level High, time 28 day
smiles,measurement,setting,value
NS(=O)(=O)c1cc(C(=O)O)c(NCc2ccco2)cc1Cl [FUROSEMIDE],TERMINAL_BW,[1],230.7 g
same,APTT,[1],16.9 s
same,Bas,[1],0%
same,Eos,[1],0.8%
same,Fbg,[1],296.8 mg/dL
same,Hb,[1],13.1 g/dL
same,Ht,[1],38.3%
same,Lym,[1],81.2%
same,MCH,[1],21.4 pg
same,MCHC,[1],34.1%
same,MCV,[1],62.7 fL
same,Mono,[1],2.2%
same,Neu,[1],14.8%
same,PT,[1],15 s
same,Plat,[1],123 x10_4/uL
same,RBC,[1],611.2 x10_4/ul
same,Ret,[1],4.2%
same,WBC,[1],107.2 x10_2/uL
same,ALP,[1],1617.4 IU/L
same,ALT,[1],47.4 IU/L
same,AST,[1],68.8 IU/L
same,BUN,[1],22.8 mg/dL
same,CRE,[1],0.2 mg/dL
same,DBIL,[1],0.014 mg/dL
same,GLC,[1],176.6 mg/dL
same,IP,[1],6.3 mg/dL
same,K,[1],3.6 meq/L
same,Na,[1],141.4 meq/L
same,PL,[1],174 mg/dL
same,RALB,[1],2.6 g/dL
same,TBIL,[1],0.054 mg/dL
same,TC,[1],90 mg/dL
same,TG,[1],65 mg/dL
same,TP,[1],5.6 g/dL
same,gamma-GTP,[1],0.4 IU/L
same,TERMINAL_BW,[2],247.4 g
same,TERMINAL_BW,[3],311 g
same,TERMINAL_BW,[4],380.8 g
same,APTT,[2],17.5 s
same,Bas,[2],0.4%
same,Eos,[2],1.2%
same,Fbg,[2],278 mg/dL
same,Hb,[2],14.1 g/dL
same,Ht,[2],40.4%
same,Lym,[2],82%
same,MCH,[2],20.8 pg
same,MCHC,[2],34.9%
same,MCV,[2],59.7 fL
same,Mono,[2],1.8%
same,Neu,[2],13.8%
same,PT,[2],16 s
same,Plat,[2],114.3 x10_4/uL
same,RBC,[2],678.6 x10_4/ul
same,Ret,[2],4.3%
same,WBC,[2],110.3 x10_2/uL
same,APTT,[3],16.7 s
same,Bas,[3],0.6%
same,Eos,[3],1%
same,Fbg,[3],253.8 mg/dL
same,Hb,[3],14.7 g/dL
same,Ht,[3],42.1%
same,Lym,[3],82.2%
same,MCH,[3],20.5 pg
same,MCHC,[3],34.9%
same,MCV,[3],58.6 fL
same,Mono,[3],2%
same,Neu,[3],13.2%
same,PT,[3],15.7 s
same,Plat,[3],108.7 x10_4/uL
same,RBC,[3],717.4 x10_4/ul
same,Ret,[3],3.8%
same,WBC,[3],124.3 x10_2/uL
same,APTT,[4],17.5 s
same,Bas,[4],1%
same,Eos,[4],1%
same,Fbg,[4],251.8 mg/dL
same,Hb,[4],14.7 g/dL
same,Ht,[4],42.7%
same,Lym,[4],80%
same,MCH,[4],19.2 pg
same,MCHC,[4],34.5%
same,MCV,[4],55.6 fL
same,Mono,[4],1.6%
same,Neu,[4],16.2%
same,PT,[4],15.7 s
same,Plat,[4],98.3 x10_4/uL
same,RBC,[4],769.2 x10_4/ul
same,Ret,[4],2.5%
same,WBC,[4],125.7 x10_2/uL
same,ALP,[2],1748.4 IU/L
same,ALT,[2],43.8 IU/L
same,AST,[2],73.4 IU/L
same,BUN,[2],17.8 mg/dL
same,CRE,[2],0.2 mg/dL
same,DBIL,[2],0.012 mg/dL
same,GLC,[2],179 mg/dL
same,IP,[2],6.2 mg/dL
same,K,[2],3.8 meq/L
same,Na,[2],142.4 meq/L
same,PL,[2],152 mg/dL
same,RALB,[2],2.6 g/dL
same,TBIL,[2],0.044 mg/dL
same,TC,[2],71.4 mg/dL
same,TG,[2],84.4 mg/dL
same,TP,[2],5.7 g/dL
same,gamma-GTP,[2],0.2 IU/L
same,ALP,[3],1743.4 IU/L
same,ALT,[3],44.2 IU/L
same,AST,[3],78.6 IU/L
same,BUN,[3],24.6 mg/dL
same,CRE,[3],0.2 mg/dL
same,DBIL,[3],0.016 mg/dL
same,GLC,[3],177 mg/dL
same,IP,[3],6.5 mg/dL
same,K,[3],3.7 meq/L
same,Na,[3],143.8 meq/L
same,PL,[3],160.6 mg/dL
same,RALB,[3],2.6 g/dL
same,TBIL,[3],0.048 mg/dL
same,TC,[3],78.4 mg/dL
same,TG,[3],107.6 mg/dL
same,TP,[3],5.7 g/dL
same,gamma-GTP,[3],0.6 IU/L
same,ALP,[4],1073.6 IU/L
same,ALT,[4],42.8 IU/L
same,AST,[4],70.4 IU/L
same,BUN,[4],24 mg/dL
same,CRE,[4],0.2 mg/dL
same,DBIL,[4],0.02 mg/dL
same,GLC,[4],178.2 mg/dL
same,IP,[4],5.7 mg/dL
same,K,[4],3.7 meq/L
same,Na,[4],144.8 meq/L
same,PL,[4],143.4 mg/dL
same,RALB,[4],2.6 g/dL
same,TBIL,[4],0.052 mg/dL
same,TC,[4],66 mg/dL
same,TG,[4],109.2 mg/dL
same,TP,[4],6 g/dL
same,gamma-GTP,[4],0.4 IU/L
same,TERMINAL_BW,[5],189.1 g
same,APTT,[5],20.9 s
same,Bas,[5],0.4%
same,Eos,[5],0.8%
same,Fbg,[5],315.2 mg/dL
same,Hb,[5],16.5 g/dL
same,Ht,[5],47%
same,Lym,[5],80%
same,MCH,[5],20.8 pg
same,MCHC,[5],35.1%
same,MCV,[5],59.3 fL
same,Mono,[5],2.6%
same,Neu,[5],15.8%
same,PT,[5],15.6 s
same,Plat,[5],124.2 x10_4/uL
same,RBC,[5],794 x10_4/ul
same,Ret,[5],2%
same,WBC,[5],116.4 x10_2/uL
same,ALP,[5],1596.8 IU/L
same,ALT,[5],46.2 IU/L
same,AST,[5],67.4 IU/L
same,BUN,[5],41.8 mg/dL
same,CRE,[5],0.2 mg/dL
same,DBIL,[5],0.02 mg/dL
same,GLC,[5],164.6 mg/dL
same,IP,[5],5.7 mg/dL
same,K,[5],3 meq/L
same,Na,[5],136.4 meq/L
same,PL,[5],169.6 mg/dL
same,RALB,[5],2.9 g/dL
same,TBIL,[5],0.082 mg/dL
same,TC,[5],90.2 mg/dL
same,TG,[5],48.4 mg/dL
same,TP,[5],6.2 g/dL
same,gamma-GTP,[5],1.2 IU/L
same,TERMINAL_BW,[6],216.8 g
same,TERMINAL_BW,[7],243.1 g
same,TERMINAL_BW,[8],317.2 g
same,APTT,[6],16.2 s
same,Bas,[6],0.4%
same,Eos,[6],1%
same,Fbg,[6],291 mg/dL
same,Hb,[6],15 g/dL
same,Ht,[6],42.7%
same,Lym,[6],81.6%
same,MCH,[6],20.8 pg
same,MCHC,[6],35.2%
same,MCV,[6],59.3 fL
same,Mono,[6],2.2%
same,Neu,[6],14.4%
same,PT,[6],16.2 s
same,Plat,[6],97.2 x10_4/uL
same,RBC,[6],720.2 x10_4/ul
same,Ret,[6],2.4%
same,WBC,[6],121.9 x10_2/uL
same,APTT,[7],17 s
same,Bas,[7],0.5%
same,Eos,[7],1%
same,Fbg,[7],309.5 mg/dL
same,Hb,[7],15.3 g/dL
same,Ht,[7],43.5%
same,Lym,[7],80%
same,MCH,[7],19.9 pg
same,MCHC,[7],35.2%
same,MCV,[7],56.5 fL
same,Mono,[7],2%
same,Neu,[7],15.5%
same,PT,[7],15.9 s
same,Plat,[7],102.8 x10_4/uL
same,RBC,[7],769.5 x10_4/ul
same,Ret,[7],3.6%
same,WBC,[7],113 x10_2/uL
same,APTT,[8],16 s
same,Bas,[8],1%
same,Eos,[8],1.2%
same,Fbg,[8],265.8 mg/dL
same,Hb,[8],15.6 g/dL
same,Ht,[8],45.6%
same,Lym,[8],80.8%
same,MCH,[8],19.3 pg
same,MCHC,[8],34.3%
same,MCV,[8],56.5 fL
same,Mono,[8],2%
same,Neu,[8],15.2%
same,PT,[8],16 s
same,Plat,[8],91 x10_4/uL
same,RBC,[8],806.5 x10_4/ul
same,Ret,[8],2%
same,WBC,[8],106.7 x10_2/uL
same,ALP,[6],1629.6 IU/L
same,ALT,[6],50.2 IU/L
same,AST,[6],71 IU/L
same,BUN,[6],27 mg/dL
same,CRE,[6],0.2 mg/dL
same,DBIL,[6],0.018 mg/dL
same,GLC,[6],169.8 mg/dL
same,IP,[6],4.9 mg/dL
same,K,[6],3.5 meq/L
same,Na,[6],141.8 meq/L
same,PL,[6],164.8 mg/dL
same,RALB,[6],2.7 g/dL
same,TBIL,[6],0.062 mg/dL
same,TC,[6],80.6 mg/dL
same,TG,[6],67 mg/dL
same,TP,[6],5.9 g/dL
same,gamma-GTP,[6],0.4 IU/L
same,ALP,[7],1713 IU/L
same,ALT,[7],48.2 IU/L
same,AST,[7],79 IU/L
same,BUN,[7],28.8 mg/dL
same,CRE,[7],0.2 mg/dL
same,DBIL,[7],0.0175 mg/dL
same,GLC,[7],174 mg/dL
same,IP,[7],5.5 mg/dL
same,K,[7],3.4 meq/L
same,Na,[7],142.8 meq/L
same,PL,[7],171.8 mg/dL
same,RALB,[7],2.7 g/dL
same,TBIL,[7],0.0575 mg/dL
same,TC,[7],83 mg/dL
same,TG,[7],84.2 mg/dL
same,TP,[7],5.9 g/dL
same,gamma-GTP,[7],0.5 IU/L
same,ALP,[8],1444.8 IU/L
same,ALT,[8],44.2 IU/L
same,AST,[8],72.2 IU/L
same,BUN,[8],30.8 mg/dL
same,CRE,[8],0.2 mg/dL
same,DBIL,[8],0.0175 mg/dL
same,GLC,[8],174.8 mg/dL
same,IP,[8],5.1 mg/dL
same,K,[8],3.5 meq/L
same,Na,[8],144.5 meq/L
same,PL,[8],150.2 mg/dL
same,RALB,[8],2.7 g/dL
same,TBIL,[8],0.055 mg/dL
same,TC,[8],69.8 mg/dL
same,TG,[8],92.2 mg/dL
same,TP,[8],6 g/dL
same,gamma-GTP,[8],0.5 IU/L
